Each block holds one molecule with its values, some of them ahead of it.
System: 317291-083-R-J1-PDC complex spheroids, viability
Assay: Anticancer human tumor 317291-083-R-J1-PDC patient-derived soft tissue sarcoma cell line growth inhibition [GQUAD]
Settings: for IC50: curve of first compound; for viability, T/C: stronger effect = lower value
Summary of the method: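 Multi-cell-type spheroids of tumor cells with HUVEC and mesenchymal stem cells, treated with drug combinations. Concentrations descend in half-log steps from near clinical Cmax, or from 10 microM where Cmax is unknown; viability read-out.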

[1] = second compound 0.0316 µM, first compound 0.0316 µM
[2] = second compound 0.0316 µM, first compound 0.1 µM
[3] = second compound 0.0316 µM, first compound 0.316 µM
[4] = second compound 0.0316 µM, first compound 1 µM
[5] = second compound 0.0316 µM, first compound 3.16 µM
[6] = second compound 0.0316 µM, first compound 10 µM
[7] = second compound 0.1 µM, first compound 0.0316 µM
[8] = second compound 0.1 µM, first compound 0.1 µM
[9] = second compound 0.1 µM, first compound 0.316 µM
[10] = second compound 0.1 µM, first compound 1 µM
[11] = second compound 0.1 µM, first compound 3.16 µM
[12] = second compound 0.1 µM, first compound 10 µM
[13] = second compound 0.316 µM, first compound 0.0316 µM
[14] = second compound 0.316 µM, first compound 0.1 µM
[15] = second compound 0.316 µM, first compound 0.316 µM
[16] = second compound 0.316 µM, first compound 1 µM
[17] = second compound 0.316 µM, first compound 3.16 µM
[18] = second compound 0.316 µM, first compound 10 µM
[19] = second compound 1 µM, first compound 0.0316 µM
[20] = second compound 1 µM, first compound 0.1 µM
[21] = second compound 1 µM, first compound 0.316 µM
[22] = second compound 1 µM, first compound 1 µM
[23] = second compound 1 µM, first compound 3.16 µM
[24] = second compound 1 µM, first compound 10 µM
[25] = second compound 3.16 µM, first compound 0.0316 µM
[26] = second compound 3.16 µM, first compound 0.1 µM
[27] = second compound 3.16 µM, first compound 0.316 µM
[28] = second compound 3.16 µM, first compound 1 µM
[29] = second compound 3.16 µM, first compound 3.16 µM
[30] = second compound 3.16 µM, first compound 10 µM
[31] = second compound 10 µM, first compound 0.0316 µM
[32] = second compound 10 µM, first compound 0.1 µM
[33] = second compound 10 µM, first compound 0.316 µM
[34] = second compound 10 µM, first compound 1 µM
[35] = second compound 10 µM, first compound 3.16 µM
[36] = second compound 10 µM, first compound 10 µM
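Also: spheroids exposed to compounds for one week before readout.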
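For viability, T/C in this document: percent viability relative to DMSO vehicle wells taken as 100%.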

SMILES: C=CCn1c(=O)c2cnc(Nc3ccc(N4CCN(C)CC4)cc3)nc2n1-c1cccc(C(C)(C)O)n1 + Cc1[nH]c2ccc(F)cc2c1-c1nc2c3cccnc3c3ncccc3c2[nH]1
- IC50 (second compound 0.0316 µM): 119 nM
- IC50 (second compound 0.1 µM): 137 nM
- IC50 (second compound 0.316 µM): 58 nM
- IC50 (second compound 1 µM): 39.5 nM
- IC50 (second compound 3.16 µM): < 31.6 nM
- IC50 (second compound 10 µM): < 31.6 nM
- viability, T/C [1]: 80.5%
- viability, T/C [2]: 55.3%
- viability, T/C [3]: 21.7%
- viability, T/C [4]: 17.8%
- viability, T/C [5]: 8.57%
- viability, T/C [6]: 9.56%
- viability, T/C [7]: 87%
- viability, T/C [8]: 59.7%
- viability, T/C [9]: 24.4%
- viability, T/C [10]: 12.8%
- viability, T/C [11]: 12%
- viability, T/C [12]: 11.9%
- viability, T/C [13]: 61.1%
- viability, T/C [14]: 40.1%
- viability, T/C [15]: 17.3%
- viability, T/C [16]: 11.3%
- viability, T/C [17]: 10.9%
- viability, T/C [18]: 8.81%
- viability, T/C [19]: 56%
- viability, T/C [20]: 25%
- viability, T/C [21]: 15.8%
- viability, T/C [22]: 7.15%
- viability, T/C [23]: 8.02%
- viability, T/C [24]: 10.3%
- viability, T/C [25]: 25.2%
- viability, T/C [26]: 12.5%
- viability, T/C [27]: 9.21%
- viability, T/C [28]: 5.63%
- viability, T/C [29]: 8.76%
- viability, T/C [30]: 6.68%
- viability, T/C [31]: 33.5%
- viability, T/C [32]: 21.5%
- viability, T/C [33]: 13.4%
- viability, T/C [34]: 9.85%
- viability, T/C [35]: 8.36%
- viability, T/C [36]: 9.58%

SMILES: COc1ncnc(C2CC2)c1-c1ncc2cnn(Cc3ccc(-c4nc(C(F)(F)F)cn4C(C)C)cc3)c2n1 + Cc1[nH]c2ccc(F)cc2c1-c1nc2c3cccnc3c3ncccc3c2[nH]1
- IC50 (second compound 0.0316 µM): > 10000 nM
- IC50 (second compound 0.1 µM): > 10000 nM
- IC50 (second compound 0.316 µM): 200 nM
- IC50 (second compound 1 µM): < 31.6 nM
- IC50 (second compound 3.16 µM): < 31.6 nM
- IC50 (second compound 10 µM): < 31.6 nM
- viability, T/C [1]: 110%
- viability, T/C [2]: 77.8%
- viability, T/C [3]: 84.5%
- viability, T/C [4]: 72.2%
- viability, T/C [5]: 64.3%
- viability, T/C [6]: 92.3%
- viability, T/C [7]: 85.7%
- viability, T/C [8]: 96.5%
- viability, T/C [9]: 68.3%
- viability, T/C [10]: 63.7%
- viability, T/C [11]: 93.4%
- viability, T/C [12]: 65%
- viability, T/C [13]: 63.3%
- viability, T/C [14]: 52.8%
- viability, T/C [15]: 50.4%
- viability, T/C [16]: 37.2%
- viability, T/C [17]: 46%
- viability, T/C [18]: 35.2%
- viability, T/C [19]: 41.4%
- viability, T/C [20]: 37.9%
- viability, T/C [21]: 35.3%
- viability, T/C [22]: 41.2%
- viability, T/C [23]: 40.5%
- viability, T/C [24]: 39.8%
- viability, T/C [25]: 35.1%
- viability, T/C [26]: 27.6%
- viability, T/C [27]: 27.1%
- viability, T/C [28]: 23.3%
- viability, T/C [29]: 23.2%
- viability, T/C [30]: 30.5%
- viability, T/C [31]: 35.8%
- viability, T/C [32]: 35.8%
- viability, T/C [33]: 31.1%
- viability, T/C [34]: 33.8%
- viability, T/C [35]: 33.5%
- viability, T/C [36]: 28.3%

- IC50 (second compound 0.0316 µM): < 31.6 nM
- IC50 (second compound 0.1 µM): 39.5 nM
- IC50 (second compound 0.316 µM): < 31.6 nM
- IC50 (second compound 1 µM): < 31.6 nM
- IC50 (second compound 3.16 µM): < 31.6 nM
- IC50 (second compound 10 µM): < 31.6 nM
SMILES: CC1COCCN1c1cc(-c2ccnn2C)c2ccnc(-c3ccn[nH]3)c2n1 (stereo not drawn) + Cc1cnc(CNC(=O)c2c(=O)c3ccc(N4CCCN(C)CC4)nc3n3c2sc2ccccc23)cn1
- viability, T/C [1]: 49.6%
- viability, T/C [2]: 19.1%
- viability, T/C [3]: 13%
- viability, T/C [4]: 10.9%
- viability, T/C [5]: 23.9%
- viability, T/C [6]: 12.7%
- viability, T/C [7]: 59%
- viability, T/C [8]: 12.5%
- viability, T/C [9]: 9.96%
- viability, T/C [10]: 15.6%
- viability, T/C [11]: 11.6%
- viability, T/C [12]: 11.4%
- viability, T/C [13]: 35.6%
- viability, T/C [14]: 14.6%
- viability, T/C [15]: 12.3%
- viability, T/C [16]: 11%
- viability, T/C [17]: 13.2%
- viability, T/C [18]: 16.6%
- viability, T/C [19]: 25.1%
- viability, T/C [20]: 25.1%
- viability, T/C [21]: 11.3%
- viability, T/C [22]: 9.59%
- viability, T/C [23]: 20.1%
- viability, T/C [24]: 11.5%
- viability, T/C [25]: 11.3%
- viability, T/C [26]: 8.19%
- viability, T/C [27]: 9.69%
- viability, T/C [28]: 12.1%
- viability, T/C [29]: 17.1%
- viability, T/C [30]: 11.5%
- viability, T/C [31]: 11.8%
- viability, T/C [32]: 11.6%
- viability, T/C [33]: 13.7%
- viability, T/C [34]: 8.98%
- viability, T/C [35]: 11.4%
- viability, T/C [36]: 18.6%

- IC50 (second compound 0.0316 µM): 2030 nM
- IC50 (second compound 0.1 µM): 163 nM
- IC50 (second compound 0.316 µM): 61.9 nM
- IC50 (second compound 1 µM): < 31.6 nM
- IC50 (second compound 3.16 µM): < 31.6 nM
- IC50 (second compound 10 µM): < 31.6 nM
SMILES: COc1ccc([C@@H](O)c2cc(-c3ncnc4cc(N5CCOCC5)ccc34)c(F)cc2Cl)nn1 + Cc1cnc(CNC(=O)c2c(=O)c3ccc(N4CCCN(C)CC4)nc3n3c2sc2ccccc23)cn1
- viability, T/C [1]: 108%
- viability, T/C [2]: 92.1%
- viability, T/C [3]: 68.2%
- viability, T/C [4]: 66.6%
- viability, T/C [5]: 41.5%
- viability, T/C [6]: 30.7%
- viability, T/C [7]: 85.9%
- viability, T/C [8]: 50.3%
- viability, T/C [9]: 49.4%
- viability, T/C [10]: 35.1%
- viability, T/C [11]: 24.1%
- viability, T/C [12]: 31.8%
- viability, T/C [13]: 58.2%
- viability, T/C [14]: 42.9%
- viability, T/C [15]: 38.1%
- viability, T/C [16]: 22.4%
- viability, T/C [17]: 24.2%
- viability, T/C [18]: 19.8%
- viability, T/C [19]: 41%
- viability, T/C [20]: 25.3%
- viability, T/C [21]: 19.6%
- viability, T/C [22]: 23.4%
- viability, T/C [23]: 33.7%
- viability, T/C [24]: 22.7%
- viability, T/C [25]: 40.1%
- viability, T/C [26]: 41.4%
- viability, T/C [27]: 19.8%
- viability, T/C [28]: 20.6%
- viability, T/C [29]: 23%
- viability, T/C [30]: 16.9%
- viability, T/C [31]: 19.1%
- viability, T/C [32]: 40.8%
- viability, T/C [33]: 17.7%
- viability, T/C [34]: 17.3%
- viability, T/C [35]: 18.6%
- viability, T/C [36]: 19.9%

Reference: PubChem BioAssay AID2060497 (Molecular Pharmacology Branch, DTP, NCI, 2025)
